The results in this text go back to patent US8822468B2 (Novartis AG, priority 2008, dated 2014).

One may read the IC50 as the concentration needed to halve the response being measured.

T1 sequence (P08581 969-1390): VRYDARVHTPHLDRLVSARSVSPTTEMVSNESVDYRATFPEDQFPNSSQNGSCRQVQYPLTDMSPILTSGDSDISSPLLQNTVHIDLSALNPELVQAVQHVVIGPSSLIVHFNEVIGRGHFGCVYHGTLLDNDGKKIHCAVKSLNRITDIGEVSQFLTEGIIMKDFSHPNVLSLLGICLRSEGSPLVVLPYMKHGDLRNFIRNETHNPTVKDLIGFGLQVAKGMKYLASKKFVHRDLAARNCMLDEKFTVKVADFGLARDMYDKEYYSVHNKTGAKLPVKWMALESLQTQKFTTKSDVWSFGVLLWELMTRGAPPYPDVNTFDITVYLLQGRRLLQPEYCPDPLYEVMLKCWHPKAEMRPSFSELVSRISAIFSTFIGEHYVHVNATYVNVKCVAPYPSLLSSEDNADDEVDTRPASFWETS

The experiment addresses T1, cMET receptor tyrosine kinase (GST-cMET (969-1390)) (Homo sapiens, UniProt P08581).
T1 construct: made in house
Nature of the experiment: EPK cMET profiling assay (LanthaScreen TR-FRET antibody based kinase phosphorylation assay). In kind it is biochemical. The following applies: purified recombinant GST-cMET (969-1390), 2 μM ATP, 50 nM Fluorescein-PolyEAY, 60 minutes at room temperature; read-out: c-Met IC50. The essentials:
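Compounds tested at eight final concentrations from 10 down to 0.003 µM against affinity-purified GST-cMET (969-1390, 0.3 nM) with 2 µM ATP and 50 nM fluorescein-PolyEAY in Tris buffer with MgCl2 and MnCl2, 1 h at room temperature. After EDTA stop, phosphoproduct detected by LanthaScreen TR-FRET with Tb-PY20 antibody, end-point measurement.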
On the technique in general: In TR-FRET formats the signal depends on donor and acceptor labels being close together.
With `C[C@H](c1c(F)cc2ncccc2c1F)c1cnc2ccc(-c3cnn(C)c3)nn12` [Example 193, 5,7-Difluoro-6-{(R)-1-[6-(1-methyl-1H-pyrazol-4-yl)-imidazo[1,2-b]pyridazin-3-yl]-ethyl}-quinoline], the IC50 worked out at 250 nM.
With `c1cnc2ccc(Cc3cnc4ccc(-c5cn[nH]c5)nn34)cc2c1` [Example 212, 6-[6-(1H-Pyrazol-4-yl)-imidazo[1,2-b]pyridazin-3-ylmethyl]-quinoline], the IC50 is 54 nM.
The value for `CC(=O)N1CCC(n2cc(-c3ccc4ncc(Cc5cc6cccnc6cc5F)n4n3)cn2)CC1` [Example 230, 1-(4-{4-[3-(7-Fluoro-quinolin-6-ylmethyl)-imidazo[1,2-b]pyridazin-6-yl]-pyrazol-1-yl}-piperidin-1-yl)-ethanone] was 27 nM; that for `C[C@@H](c1cc2cccnc2cc1F)c1cnc2ccc(-c3cnn(CCO)c3)nn12` [Example 257] was less than 3 nM.
As for `Clc1cccc(Sc2ccc3ncc(Cc4ccc5ncccc5c4)n3n2)c1` [Example 112, 6-[6-(3-Chloro-phenylsulfanyl)-imidazo[1,2-b]pyridazin-3-ylmethyl]-quinoline], the figure is 220 nM; as for `CC(c1cc2cnn(C)c2cc1F)c1cnc2ccc(-c3cnn(C)c3)nn12` (racemic) [Example 278, (rac)-3-[1-(6-Fluoro-1-methyl-1H-indazol-5-yl)-ethyl]-6-(1-methyl-1H-pyrazol-4-yl)-imidazo[1,2-b]pyridazine], 21 nM.
The value for `Fc1cc2ncccc2c(F)c1Cc1cnc2ccc(-c3cn[nH]c3)nn12` [Example 263, 5,7-Difluoro-6-[6-(1H-pyrazol-4-yl)-imidazo[1,2-b]pyridazin-3-ylmethyl]-quinoline] was 10 nM; that for `Cn1cc(-c2ccc3ncc(C(O)c4ccc5ncccc5c4F)n3n2)cn1` (racemic) [Example 247, (rac)-(5-Fluoro-quinolin-6-yl)-[6-(1-methyl-1H-pyrazol-4-yl)-imidazo[1,2-b]pyridazin-3-yl]-methanol] was 66 nM.
As for `Cn1cc(-c2ccc3ncc(C(F)(F)c4ccc5ncccc5c4)n3n2)cn1` [Example 6, 6-{Difluoro-[6-(1-methyl-1H-pyrazol-4-yl)-imidazo[1,2-b]pyridazin-3-yl]-methyl}-quinoline], the 50% inhibitory concentration (IC50) stood at 14 nM.
As for `C[C@H](c1c(F)cc2ncccc2c1F)c1cnc2ccc(-c3cnn(CCO)c3)nn12` [Example 183, 2-(4-{3-[(R)-1-(5,7-Difluoro-quinolin-6-yl)-ethyl]-imidazo[1,2-b]pyridazin-6-yl}-pyrazol-1-yl)ethanol], the figure is 200 nM; as for `Brc1ccc(-c2ccc3ncc(Cc4ccc5ncccc5c4)n3n2)cc1` [Example 19, 6-[6-(4-Bromo-phenyl)-imidazo[1,2-b]pyridazin-3-ylmethyl]-quinoline], 215 nM; as for `O=[N+]([O-])c1cccc(-c2ccc3ncc(Cc4ccc5ncccc5c4)n3n2)c1` [Example 22, 6-[6-(3-Nitro-phenyl)-imidazo[1,2-b]pyridazin-3-ylmethyl]-quinoline], 7.4 nM.
In the case of `[2H]C([2H])(c1ccc2ncccc2c1)c1cnc2ccc(Cl)nn12` [Example 142, 6-[(6-Chloro-imidazo[1,2-b]pyridazin-3-yl)-dideutero-methyl]-quinoline], the IC50 was found to be 210 nM.
The value for `OCCn1cc(-c2ccc3ncc(Cc4ccc(O)cc4)n3n2)cn1` [Example 220, 4-{6-[1-(2-Hydroxy-ethyl)-1H-pyrazol-4-yl]-imidazo[1,2-b]pyridazin-3-ylmethyl}-phenol] was 330 nM; that for `C[C@@H](c1c(F)cc2ncccc2c1F)c1cnc2ccc(-c3cnn(CCO)c3)nn12` [Example 184, 2-(4-{3-[(S)-1-(5,7-Difluoro-quinolin-6-yl)-ethyl]-imidazo[1,2-b]pyridazin-6-yl}-pyrazol-1-yl)ethanol] was less than 3 nM; that for `C[C@H](c1ccc2ncccc2c1)c1cnc2ccc(-c3cnn(C)c3)nn12` [Example 158, 6-{(R)-1-[6-(1-Methyl-1H-pyrazol-4-yl)-imidazo[1,2-b]pyridazin-3-yl]-ethyl}-quinoline] was 540 nM.
